Experimental findings from patent US20100041642A1, “UREA INHIBITORS OF MAP KINASES” (LOCUS PHARMACEUTICALS, INC., priority 2008, published 2010) are described below.

Molecules are shown by their SMILES. pIC50: −log10 of the molar value. Some results are limits rather than exact numbers.

The target in the assay is p38 (Homo sapiens, UniProt Q16539). Nature of the assay: Protein Kinase Assay (33P incorporation from γ-[33P]ATP into GST-ATF-2). Format: biochemical. The note with it: 2 nM p38, preincubated 20 min at 30° C.; 10 uM cold ATP, 2 uM GST-ATF2, 70 min; read-out: ACT. (Activity), IC50 category in Protein Kinase Assay. On the procedure:
Protein Kinase Assay. The protein kinase activity of p38 was determined by measuring the incorporation of ^33P from γ-[^33P]ATP into the GST-ATF-2 substrate, amino acids 19-96 (Upstate, N.Y. USA). The reactions were carried out in a final volume of 50 μL of 24 mM Tris-HCl buffer, pH 7.5, containing 13 mM MgCl2, 12% Glycerol, 2% DMSO, 2 mM DTT, […] of γ-[^33P]ATP (1000 Ci/mmol; 1 Ci=37 GBq) (GE Healthcare, Piscataway, N.J.), 10 uM cold ATP (GE Healthcare, Piscataway, N.J.), and 2 uM GST-ATF2. Compounds were preincubated with 2 nM p38 for 20 min at 30° C.; the reactions were initiated by the addition of GST-ATF2 and ATP and incubated for 70 min at 30° C. before being stopped by the addition of 10 μL of 600 mM phosphoric acid. The phosphorylated substrate was captured on phosphocellulose 96-well plate (Millipore MAPHNOB 10), washed with 100 mM phosphoric acid, and counted in a BeckmenCoulter LS6500 liquid scintillation counter. […] (Activity).

p38, sequence (Q16539 whole entry, the tested form may be a part): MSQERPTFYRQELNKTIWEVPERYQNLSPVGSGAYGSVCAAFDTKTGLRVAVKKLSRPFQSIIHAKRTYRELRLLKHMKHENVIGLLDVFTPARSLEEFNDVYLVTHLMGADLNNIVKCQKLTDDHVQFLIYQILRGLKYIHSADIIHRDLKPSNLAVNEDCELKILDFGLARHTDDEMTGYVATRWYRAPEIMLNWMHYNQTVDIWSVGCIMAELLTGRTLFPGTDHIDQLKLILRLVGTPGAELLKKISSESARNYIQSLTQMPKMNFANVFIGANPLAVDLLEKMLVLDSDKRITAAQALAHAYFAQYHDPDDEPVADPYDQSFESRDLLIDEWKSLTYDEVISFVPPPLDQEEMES

`CCNC(=O)c1ccc(-c2cc(NC(=O)Nc3cc(C(C)(C)C)sc3C(=O)N3CCNC(=O)C3(C)C)ccc2C)cn1`: the pIC50 – broadly, the IC50 on a negative log10 scale, so that one unit is a factor of ten – is over 7.00.

Regarding `Cc1ccc(NC(=O)Nc2sc(C(C)(C)C)cc2C(=O)N2CCNS(=O)(=O)CC2)cc1-c1ccc(CN2CCOCC2)nc1`, the pIC50 was over 7.00.

`Cc1nnc(-c2ccc(-c3cc(NC(=O)Nc4cc(C(C)(C)C)sc4C(=O)N4CCN(C)C(=O)C4(C)C)ccc3C)cn2)o1`: the pIC50 is over 7.00.

Regarding `CCOc1ccc(-c2cc(NC(=O)Nc3cn(C(C)(C)C)nc3C(=O)N3CCN(C)C(=O)C3(C)C)ccc2C)cn1` [1-(1-tert-butyl-3-(2,2,4-trimethyl-3-oxopiperazine-1-carbonyl)-1H-pyrazol-4-yl)-3-(3-(6-ethoxypyridin-3-yl)-4-methylphenyl)urea], the pIC50 is over 7.00.

With `CCc1ccc(-c2cc(NC(=O)Nc3cn(C(C)(C)C)nc3C(=O)N3CCN(C)C(=O)C3(C)C)ccc2C)cn1` [1-(1-tert-butyl-3-(2,2,4-trimethyl-3-oxopiperazine-1-carbonyl)-1H-pyrazol-4-yl)-3-(3-(6-ethylpyridin-3-yl)-4-methylphenyl)urea], the pIC50 was over 7.00.

Turning to `CCc1ccc(-c2cc(NC(=O)Nc3cn(C(C)(C)C)nc3C(=O)N3CCN(C)C(=O)C3(C)C)cc(F)c2C)cn1` [1-(1-tert-butyl-3-(2,2,4-trimethyl-3-oxopiperazine-1-carbonyl)-1H-pyrazol-4-yl)-3-(3-(6-ethylpyridin-3-yl)-5-fluoro-4-methylphenyl)urea], the pIC50 is over 7.00.

For the molecule `Cc1ccc(NC(=O)Nc2cn(C(C)(C)C)nc2C(=O)N2CCN(C)C(=O)C2(C)C)cc1-c1ccc(C(C)C)nc1` [1-(1-tert-butyl-3-(2,2,4-trimethyl-3-oxopiperazine-1-carbonyl)-1H-pyrazol-4-yl)-3-(3-(6-isopropylpyridin-3-yl)-4-methylphenyl)urea], the pIC50 was over 7.00.

As for `Cc1ccc(NC(=O)Nc2cn(C(C)(C)C)nc2C(=O)N2CCN(C)C(=O)C2(C)C)cc1-c1ccc(CN2CCOCC2)cn1` [1-(1-tert-butyl-3-(2,2,4-trimethyl-3-oxopiperazine-1-carbonyl)-1H-pyrazol-4-yl)-3-(4-methyl-3-(5-(morpholinomethyl)pyridin-2-yl)phenyl)urea], the pIC50 was over 7.00.

In the case of `Cc1ccc(NC(=O)Nc2cn(C(C)(C)C)nc2C(=O)N2CCN(C)C(=O)C2(C)C)cc1-c1ccc(N2CCOCC2)cn1` [1-(1-tert-butyl-3-(2,2,4-trimethyl-3-oxopiperazine-1-carbonyl)-1H-pyrazol-4-yl)-3-(4-methyl-3-(5-morpholinopyridin-2-yl)phenyl)urea], the pIC50 was over 7.00.

Turning to `Cc1ccc(NC(=O)Nc2cn(C(C)(C)C)nc2C(=O)N2CCN(C)C(=O)C2(C)C)cc1-c1ccc(CN2CCOCC2)nc1` [1-(1-tert-butyl-3-(2,2,4-trimethyl-3-oxopiperazine-1-carbonyl)-1H-pyrazol-4-yl)-3-(4-methyl-3-(6-(morpholinomethyl)pyridin-3-yl)phenyl)urea], the pIC50 was over 7.00.

For `CCc1ccc(-c2cc(NC(=O)Nc3cn(C(C)(C)C)nc3C(=O)N3CCNC(=O)C3(C)C)ccc2C)cn1` [1-(1-tert-butyl-3-(2,2-dimethyl-3-oxopiperazine-1-carbonyl)-1H-pyrazol-4-yl)-3-(3-(6-ethylpyridin-3-yl)-4-methylphenyl)urea], the pIC50 is over 7.00.

For `Cc1ccc(NC(=O)Nc2cn(C(C)(C)C)nc2C(=O)N2CCNC(=O)C2(C)C)cc1-c1ccc(C(C)C)nc1` [1-(1-tert-butyl-3-(2,2-dimethyl-3-oxopiperazine-1-carbonyl)-1H-pyrazol-4-yl)-3-(3-(6-isopropylpyridin-3-yl)-4-methylphenyl)urea], the pIC50 is over 7.00.

On to `Cc1ccc(NC(=O)Nc2cn(C(C)(C)C)nc2C(=O)N2CCNC(=O)C2(C)C)cc1-c1ccc(CN2CCOCC2)cn1` [1-(1-tert-butyl-3-(2,2-dimethyl-3-oxopiperazine-1-carbonyl)-1H-pyrazol-4-yl)-3-(4-methyl-3-(5-(morpholinomethyl)pyridin-2-yl)phenyl)urea], for which the pIC50 was over 7.00.

In the case of `Cc1ccc(NC(=O)Nc2cn(C(C)(C)C)nc2C(=O)N2CCNC(=O)C2(C)C)cc1-c1ccc(CN2CCOCC2)nc1` [1-(1-tert-butyl-3-(2,2-dimethyl-3-oxopiperazine-1-carbonyl)-1H-pyrazol-4-yl)-3-(4-methyl-3-(6-(morpholinomethyl)pyridin-3-yl)phenyl)urea], the pIC50 is over 7.00.

As to `Cc1ccc(NC(=O)Nc2cn(C(C)(C)C)nc2C(=O)N2CCNC(=O)C2(C)C)cc1-c1ccc(N2CCOCC2)nc1` [1-(1-tert-butyl-3-(2,2-dimethyl-3-oxopiperazine-1-carbonyl)-1H-pyrazol-4-yl)-3-(4-methyl-3-(6-morpholinopyridin-3-yl)phenyl)urea], the pIC50 is over 7.00.

`Cc1ccc(NC(=O)Nc2cn(C(C)(C)C)nc2C(=O)N2CCNC(=O)C2(C)C)cc1-c1cccnc1` [1-(1-tert-butyl-3-(2,2-dimethyl-3-oxopiperazine-1-carbonyl)-1H-pyrazol-4-yl)-3-(4-methyl-3-(pyridin-3-yl)phenyl)urea]: the pIC50 is over 7.00.

Consider `Cc1ccc(NC(=O)Nc2cn(C(C)(C)C)nc2C(=O)N2CCN(C3CCN(C)C3)C(=O)C2(C)C)cc1-c1cccnc1` (stereo not drawn) [1-(1-tert-butyl-3-(2,2-dimethyl-4-(1-methylpyrrolidin-3-yl)-3-oxopiperazine-1-carbonyl)-1H-pyrazol-4-yl)-3-(4-methyl-3-(pyridin-3-yl)phenyl)urea], for which the pIC50 is over 6.00.

For `Cc1ccc(NC(=O)Nc2sc(C(C)(C)C)nc2C(=O)N2CCN(C)C(=O)C2(C)C)cc1-c1ccc(CN2CCOCC2)cn1` [1-(2-tert-butyl-4-(2,2,4-trimethyl-3-oxopiperazine-1-carbonyl)thiazol-5-yl)-3-(4-methyl-3-(5-(morpholinomethyl)pyridin-2-yl)phenyl)urea], the pIC50 is over 7.00.

For `Cc1nnc(-c2ccc(-c3cc(NC(=O)Nc4sc(C(C)(C)C)nc4C(=O)N4CCN(C)C(=O)C4(C)C)ccc3C)cn2)o1` [1-(2-tert-butyl-4-(2,2,4-trimethyl-3-oxopiperazine-1-carbonyl)thiazol-5-yl)-3-(4-methyl-3-(6-(5-methyl-1,3,4-oxadiazol-2-yl)pyridin-3-yl)phenyl)urea], the pIC50 is over 7.00.

In the case of `Cc1ccc(NC(=O)Nc2sc(C(C)(C)C)nc2C(=O)N2CCN(C)C(=O)C2(C)C)cc1-c1ccc(CN2CCOCC2)nc1` [1-(2-tert-butyl-4-(2,2,4-trimethyl-3-oxopiperazine-1-carbonyl)thiazol-5-yl)-3-(4-methyl-3-(6-(morpholinomethyl)pyridin-3-yl)phenyl)urea], the pIC50 was over 7.00.

For the molecule `CCc1ccc(-c2cc(NC(=O)Nc3cn(C4(C)CCCC4)nc3C(=O)N3CCNC(=O)C3(C)C)ccc2C)cn1` [1-(3-(2,2-dimethyl-3-oxopiperazine-1-carbonyl)-1-(1-methylcyclopentyl)-1H-pyrazol-4-yl)-3-(3-(6-ethylpyridin-3-yl)-4-methylphenyl)urea], the pIC50 was over 7.00.

In the case of `Cc1ccc(NC(=O)Nc2sc(C(C)(C)C)cc2C(=O)N2CCN(C)C(=O)C2(C)C)cc1-c1ccc(-n2ccnc2)nc1` [1-(3-(6-(1H-imidazol-1-yl)pyridin-3-yl)-4-methylphenyl)-3-(5-tert-butyl-3-(2,2,4-trimethyl-3-oxopiperazine-1-carbonyl)thiophen-2-yl)urea], the pIC50 is over 7.00.

Turning to `Cc1ccc(NC(=O)Nc2sc(C(C)(C)C)cc2C(=O)N2CCN(C)C(=O)C2(C)C)cc1-c1ccc(-n2cccn2)nc1` [1-(3-(6-(1H-pyrazol-1-yl)pyridin-3-yl)-4-methylphenyl)-3-(5-tert-butyl-3-(2,2,4-trimethyl-3-oxopiperazine-1-carbonyl)thiophen-2-yl)urea], the pIC50 is over 7.00.

On to `Cc1ccc(NC(=O)Nc2sc(C(C)(C)C)cc2C(=O)N2CCNC(=O)C2(C)C)cc1-c1ccc(N2CCC(N)C2)nc1` (stereo not drawn) [1-(3-(6-(3-aminopyrrolidin-1-yl)pyridin-3-yl)-4-methylphenyl)-3-(5-tert-butyl-3-(2,2-dimethyl-3-oxopiperazine-1-carbonyl)thiophen-2-yl)urea], for which the pIC50 is over 7.00.

For `Cc1ccc(NC(=O)Nc2sc(C(C)(C)C)cc2C(=O)N2CCNC(=O)C2(C)C)cc1-c1ccc(CN)nc1` [1-(3-(6-(aminomethyl)pyridin-3-yl)-4-methylphenyl)-3-(5-tert-butyl-3-(2,2-dimethyl-3-oxopiperazine-1-carbonyl)thiophen-2-yl)urea], the pIC50 was over 7.00.

Turning to `Cc1ccc(NC(=O)Nc2sc3c(c2C(=O)N2CCN(C)C(=O)C2(C)C)CCOC3)cc1-c1ccc(CN2CCOCC2)nc1` [1-(4-methyl-3-(6-(morpholinomethyl)pyridin-3-yl)phenyl)-3-(3-(2,2,4-trimethyl-3-oxopiperazine-1-carbonyl)-5,7-dihydro-4H-thieno[2,3-c]pyran-2-yl)urea], the pIC50 was over 6.00.

For `CCC(C)(C)c1cc(C(=O)N2CCN(C)C(=O)C2(C)C)c(NC(=O)Nc2ccc(C)c(-c3ccc(CN4CCOCC4)nc3)c2)s1` [1-(4-methyl-3-(6-(morpholinomethyl)pyridin-3-yl)phenyl)-3-(5-tert-pentyl-3-(2,2,4-trimethyl-3-oxopiperazine-1-carbonyl)thiophen-2-yl)urea], the negative-log IC50 (pIC50) is over 7.00.
